Assay [1] deals with ELIC with mutations of residues 2′ and 6′. The conditions noted are these: mutations of residues 2′ and 6′ in ELIC; cited from earlier work.
Another assay deals with T1, T6′A ELIC (Dickeya chrysanthemi, UniProt P0C7B7, T236A).
T1 construct: expressed in transfected cells; host or cells: Xenopus laevis oocytes (cRNA injection)
In words: Inhibition of GABA-elicited currents of T6′A ELIC in Xenopus oocytes. It counts as cell-based, Erwinia chrysanthemii. The conditions noted are these: T6′A ELIC; inhibition curve. The method, then:
(§1) Xenopus laevis oocyte-positive females were purchased from NASCO (Fort Atkinson, WI) and maintained according to standard methods. Harvested stage V and VI Xenopus oocytes were washed in four changes of Ca^2+-free ND96 [96 mM NaCl, 2 mM KCl, 1 mM MgCl2, and 5 mM HEPES (pH 7.5)], defolliculated in 1.5 mg mL^–1 collagenase type 1A for approximately 2 h, washed again in four changes of ND96, and stored in ND96 at 16 °C containing 2.5 mM sodium pyruvate, […] gentamycin, and 0.7 mM theophylline.
(§2) ELIC (GenBank accession number ADN00343.1) was kindly provided by C. Ulens. For expression in Xenopus oocytes, it was cloned into pGEMHE with the signal sequence of the human α7 nACh receptor. […] Stage V and VI oocytes were injected with 20 ng of cRNA, and currents were recorded 1–3 days postinjection.
(§3) Using two-electrode voltage clamp, Xenopus oocytes were clamped at −60 mV using an OC-725 amplifier (Warner Instruments, Hamden, CT), Digidata 1322A, and the Strathclyde Electrophysiology Software Package (Department of Physiology and Pharmacology, University of Strathclyde, Glasgow, U.K.). Currents were recorded at 5 kHz and filtered at a frequency of 1 kHz. […] Inhibition by test compounds was measured at the GABA EC50 for each mutant. […]

The target of a further assay is T2, F16′T ELIC (Dickeya chrysanthemi, UniProt P0C7B7, F246T).
T2 construct: expressed in transfected cells; host or cells: Xenopus laevis oocytes (cRNA injection)
In words: Inhibition of GABA-elicited currents of F16′T ELIC in Xenopus oocytes. It counts as cell-based, Erwinia chrysanthemii. The conditions noted are these: F16′T ELIC; inhibition curve.

A further assay deals with T3, F16′W ELIC (Dickeya chrysanthemi, UniProt P0C7B7, F246W).
T3 construct: expressed in transfected cells; host or cells: Xenopus laevis oocytes (cRNA injection)
The assay is described as follows: Inhibition of GABA-elicited currents of F16′W ELIC in Xenopus oocytes. It counts as cell-based, Erwinia chrysanthemii. The conditions noted are these: F16′W ELIC.

The test system of a further assay is GLIC. More on the design: method as in PMID 22677470, PMID 22208189. The conditions noted are these: cited from earlier work.
Another assay deals with T4, F16′E ELIC (Dickeya chrysanthemi, UniProt P0C7B7, F246E).
T4 construct: expressed in transfected cells; host or cells: Xenopus laevis oocytes (cRNA injection)
In words: Inhibition of GABA-elicited currents of F16′E ELIC in Xenopus oocytes. The conditions noted are these: F16′E ELIC; inhibition curve. It counts as cell-based, Erwinia chrysanthemii.

The next assay deals with T5, F16′D ELIC (Dickeya chrysanthemi, UniProt P0C7B7, F246D).
T5 construct: expressed in transfected cells; host or cells: Xenopus laevis oocytes (cRNA injection)
In words: Inhibition of GABA-elicited currents of F16′D ELIC in Xenopus oocytes. It is filed as cell-based, Erwinia chrysanthemii. The conditions noted are these: F16′D ELIC; inhibition curve. The protocol: as §1, §2, §3

Another assay deals with T6, wild type ELIC (Dickeya chrysanthemi, UniProt P0C7B7).
T6 construct: expressed in transfected cells; host or cells: Xenopus laevis oocytes (cRNA injection)
The assay is described as follows: Inhibition of GABA-elicited currents of wild-type ELIC in Xenopus oocytes. It is filed as cell-based, Erwinia chrysanthemii. The method, then: as §1
ELIC (GenBank accession number ADN00343.1) was kindly provided by C. Ulens. For expression in Xenopus oocytes, it was cloned into pGEMHE with the signal sequence of the human α7 nACh receptor. Site-directed mutagenesis was performed with the QuikChange mutagenesis kit (Stratagene, La Jolla, CA). cRNA was transcribed in vitro from the linearized pGEMHE cDNA template using the mMessage mMachine T7 transcription kit (Ambion, Austin, TX). Stage V and VI oocytes were injected with 20 ng of cRNA, and currents were recorded 1–3 days postinjection.
Using two-electrode voltage clamp, Xenopus oocytes were clamped at −60 mV using an OC-725 amplifier (Warner Instruments, Hamden, CT), Digidata 1322A, and the Strathclyde Electrophysiology Software Package (Department of Physiology and Pharmacology, University of Strathclyde, Glasgow, U.K.). Currents were recorded at 5 kHz and filtered at a frequency of 1 kHz. Microelectrodes were fabricated from borosilicate glass (GC120TF-10, Harvard Apparatus, Edenbridge, Kent, U.K.) using a one-stage horizontal pull (P-87, Sutter Instrument Co., Novato, CA) and filled with 3 M KCl. Pipette resistances ranged from 1.0 to 2.0 MΩ. Oocytes were perfused with ND96 at a constant rate of 12 mL min^–1 with complete solution exchange within 5 s. Drug application was accomplished via a simple gravity-fed system calibrated to run at the same rate. Inhibition by test compounds was measured at the GABA EC50 for each mutant.
Analysis and curve fitting were performed using Prism version 4.03 (GraphPad Software, San Diego, CA). Concentration–response data for each oocyte were normalized to the maximal current for that oocyte and the mean ± standard error of the mean (SEM) for a series of oocytes pooled and plotted against agonist or antagonist concentration and iteratively fit to the four-parameter logistic equation. Statistical analysis was performed using a Student’s t test.

A further assay addresses T7, T6′S ELIC (Dickeya chrysanthemi, UniProt P0C7B7, T236S).
T7 construct: expressed in transfected cells; host or cells: Xenopus laevis oocytes (cRNA injection)
In words: Inhibition of GABA-elicited currents of T6′S ELIC in Xenopus oocytes. It counts as cell-based, Erwinia chrysanthemii. The note with it: T6′S ELIC; inhibition curve.

The target in another assay is T8, F16′A ELIC (Dickeya chrysanthemi, UniProt P0C7B7, F246A).
T8 construct: expressed in transfected cells; host or cells: Xenopus laevis oocytes (cRNA injection)
The assay is described as follows: Inhibition of GABA-elicited currents of F16′A ELIC in Xenopus oocytes. It counts as cell-based, Erwinia chrysanthemii. The conditions noted are these: F16′A ELIC; inhibition curve.

In the next assay the target is T9, Q2′N ELIC (Dickeya chrysanthemi, UniProt P0C7B7, Q232N).
T9 construct: expressed in transfected cells; host or cells: Xenopus laevis oocytes (cRNA injection)
In words: Inhibition of GABA-elicited currents of Q2′N ELIC in Xenopus oocytes. It counts as cell-based, Erwinia chrysanthemii. The conditions noted are these: Q2′N ELIC; inhibition curve.

The target in a further assay is T10, F16′S ELIC (Dickeya chrysanthemi, UniProt P0C7B7, F246S).
T10 construct: expressed in transfected cells; host or cells: Xenopus laevis oocytes (cRNA injection)
In words: Inhibition of GABA-elicited currents of F16′S ELIC in Xenopus oocytes. It is filed as cell-based, Erwinia chrysanthemii. The note with it: F16′S ELIC.

T6 sequence (P0C7B7 whole entry): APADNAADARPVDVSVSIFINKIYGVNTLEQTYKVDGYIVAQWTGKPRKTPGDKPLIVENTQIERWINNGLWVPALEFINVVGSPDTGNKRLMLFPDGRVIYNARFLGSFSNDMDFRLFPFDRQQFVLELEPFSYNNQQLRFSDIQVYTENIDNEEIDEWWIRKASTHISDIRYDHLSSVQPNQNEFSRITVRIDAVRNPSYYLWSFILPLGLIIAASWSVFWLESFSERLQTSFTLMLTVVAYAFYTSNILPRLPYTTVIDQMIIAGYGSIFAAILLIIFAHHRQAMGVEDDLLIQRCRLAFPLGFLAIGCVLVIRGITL
T10 sequence (P0C7B7 whole entry F246S): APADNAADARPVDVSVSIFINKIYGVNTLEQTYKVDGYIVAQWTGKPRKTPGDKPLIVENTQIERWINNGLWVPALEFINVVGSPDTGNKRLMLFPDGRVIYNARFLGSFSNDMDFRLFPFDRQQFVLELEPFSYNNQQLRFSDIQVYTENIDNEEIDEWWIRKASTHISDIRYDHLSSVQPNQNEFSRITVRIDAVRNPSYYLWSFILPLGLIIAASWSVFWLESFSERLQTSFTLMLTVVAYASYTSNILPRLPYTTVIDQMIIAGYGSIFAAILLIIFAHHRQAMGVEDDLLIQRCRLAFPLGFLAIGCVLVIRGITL
T3 sequence (P0C7B7 whole entry F246W): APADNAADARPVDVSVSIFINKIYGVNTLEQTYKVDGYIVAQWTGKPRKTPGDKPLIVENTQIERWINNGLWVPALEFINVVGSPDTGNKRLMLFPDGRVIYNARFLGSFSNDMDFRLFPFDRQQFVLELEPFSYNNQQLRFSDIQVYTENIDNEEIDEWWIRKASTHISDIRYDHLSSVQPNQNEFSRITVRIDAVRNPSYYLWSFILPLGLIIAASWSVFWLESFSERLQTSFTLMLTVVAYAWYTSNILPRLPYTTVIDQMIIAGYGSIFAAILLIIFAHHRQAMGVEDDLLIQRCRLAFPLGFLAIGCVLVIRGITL
T4 sequence (P0C7B7 whole entry F246E): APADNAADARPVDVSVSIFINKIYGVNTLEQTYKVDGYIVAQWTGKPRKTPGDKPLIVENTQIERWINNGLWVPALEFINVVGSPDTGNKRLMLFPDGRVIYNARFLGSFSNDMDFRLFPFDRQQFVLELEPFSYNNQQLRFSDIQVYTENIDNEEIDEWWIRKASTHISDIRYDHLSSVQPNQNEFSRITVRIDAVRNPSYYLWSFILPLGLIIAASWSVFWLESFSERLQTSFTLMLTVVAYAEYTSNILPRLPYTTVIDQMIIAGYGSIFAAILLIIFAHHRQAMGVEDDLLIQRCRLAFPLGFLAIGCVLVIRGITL
T5 sequence (P0C7B7 whole entry F246D): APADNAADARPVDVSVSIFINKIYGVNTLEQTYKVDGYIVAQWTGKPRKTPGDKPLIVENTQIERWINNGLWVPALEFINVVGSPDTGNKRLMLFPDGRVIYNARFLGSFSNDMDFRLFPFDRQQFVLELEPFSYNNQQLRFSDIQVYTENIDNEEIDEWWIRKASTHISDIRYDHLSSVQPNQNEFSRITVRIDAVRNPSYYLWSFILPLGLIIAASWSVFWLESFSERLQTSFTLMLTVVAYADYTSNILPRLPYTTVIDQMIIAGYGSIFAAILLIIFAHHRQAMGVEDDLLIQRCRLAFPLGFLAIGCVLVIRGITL
T9 sequence (P0C7B7 whole entry Q232N): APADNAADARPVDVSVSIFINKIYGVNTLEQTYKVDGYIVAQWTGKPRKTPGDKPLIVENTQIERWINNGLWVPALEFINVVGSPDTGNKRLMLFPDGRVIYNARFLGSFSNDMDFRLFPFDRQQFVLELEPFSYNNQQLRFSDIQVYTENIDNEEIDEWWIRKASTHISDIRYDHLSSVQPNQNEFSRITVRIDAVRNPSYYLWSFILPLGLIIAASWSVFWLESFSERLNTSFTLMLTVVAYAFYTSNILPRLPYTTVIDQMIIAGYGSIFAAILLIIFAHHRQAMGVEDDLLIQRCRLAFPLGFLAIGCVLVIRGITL
T1 sequence (P0C7B7 whole entry T236A): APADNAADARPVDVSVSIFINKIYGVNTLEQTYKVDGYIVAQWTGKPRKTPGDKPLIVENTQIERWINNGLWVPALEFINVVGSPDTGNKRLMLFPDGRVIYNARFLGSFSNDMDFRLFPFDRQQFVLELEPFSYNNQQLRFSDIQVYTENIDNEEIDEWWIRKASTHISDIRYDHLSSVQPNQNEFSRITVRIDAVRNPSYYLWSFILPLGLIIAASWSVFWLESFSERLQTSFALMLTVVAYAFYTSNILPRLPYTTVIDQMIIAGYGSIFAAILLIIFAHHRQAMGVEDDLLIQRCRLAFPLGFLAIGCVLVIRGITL
T7 sequence (P0C7B7 whole entry T236S): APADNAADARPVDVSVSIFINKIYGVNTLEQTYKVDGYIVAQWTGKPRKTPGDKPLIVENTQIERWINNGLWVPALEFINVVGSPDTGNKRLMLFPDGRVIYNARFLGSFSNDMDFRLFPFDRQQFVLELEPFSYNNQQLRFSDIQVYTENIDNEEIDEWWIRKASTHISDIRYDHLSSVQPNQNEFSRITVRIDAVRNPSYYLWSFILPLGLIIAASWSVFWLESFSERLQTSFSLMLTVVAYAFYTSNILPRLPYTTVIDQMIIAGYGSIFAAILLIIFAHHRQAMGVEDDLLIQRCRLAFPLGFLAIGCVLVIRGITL
T2 sequence (P0C7B7 whole entry F246T): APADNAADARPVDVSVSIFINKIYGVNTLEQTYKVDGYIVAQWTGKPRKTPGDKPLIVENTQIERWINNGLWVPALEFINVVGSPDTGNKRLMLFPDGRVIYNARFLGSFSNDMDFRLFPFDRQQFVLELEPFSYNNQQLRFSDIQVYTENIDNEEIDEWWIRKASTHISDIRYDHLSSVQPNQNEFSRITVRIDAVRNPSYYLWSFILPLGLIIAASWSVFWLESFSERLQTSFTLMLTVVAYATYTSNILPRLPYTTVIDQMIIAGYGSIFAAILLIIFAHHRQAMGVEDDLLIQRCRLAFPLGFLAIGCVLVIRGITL
T8 sequence (P0C7B7 whole entry F246A): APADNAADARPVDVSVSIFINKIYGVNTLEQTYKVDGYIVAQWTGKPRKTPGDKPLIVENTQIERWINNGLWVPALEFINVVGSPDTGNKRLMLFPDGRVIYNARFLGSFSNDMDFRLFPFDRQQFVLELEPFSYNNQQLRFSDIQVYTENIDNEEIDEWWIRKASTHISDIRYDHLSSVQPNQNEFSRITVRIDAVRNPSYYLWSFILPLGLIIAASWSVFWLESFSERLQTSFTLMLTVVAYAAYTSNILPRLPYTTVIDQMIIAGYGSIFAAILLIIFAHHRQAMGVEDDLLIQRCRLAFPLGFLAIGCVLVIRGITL

For `O=S1OC[C@@H]2[C@H](CO1)[C@@]1(Cl)C(Cl)=C(Cl)[C@]2(Cl)C1(Cl)Cl` (stereo partly drawn) [α-endosufan], the “inhibition of ELIC” value in assay [1] is recorded as “abolish inhibition”.

The inhibition is how much of the control response was suppressed. The term IC50 denotes the point on the concentration scale where inhibition reaches its midpoint. As to `C=C(C)[C@@H]1[C@H]2OC(=O)[C@@H]1[C@]1(O)C[C@H]3O[C@]34C(=O)O[C@H]2[C@]14C` [PXN, Picrotoxinin], the nH at T6′A ELIC came out at 1.8 ± 0.4; at F16′T ELIC it was 0.9 ± 0.1; at F16′W ELIC (inhibition curve) it was 1.3 ± 0.3; on F16′E ELIC, 0.6 ± 0.1; at F16′D ELIC, 1.0 ± 0.2; at wild type ELIC (wild type ELIC, inhibition curve), 1.3 ± 0.3. The nH was 1.3 ± 0.3 on T6′S ELIC, 1.0 ± 0.2 at F16′A ELIC, 1.6 ± 0.3 on Q2′N ELIC and 1.3 ± 0.3 on F16′S ELIC (inhibition curve). Further, the inhibition at 100 µM on F16′W ELIC (co-application of 100 μM PXN with GABA EC50, read-out: inhibition of the GABA EC50 response) is ~50%; at wild type ELIC (read-out: inhibition of the GABA EC50 response), ~50%. The IC50 in the assay with GLIC is 2.6 µM; against wild type ELIC it was 72 µM. Besides, on F16′S ELIC (co-application of 100 μM PXN with GABA EC50), the “inhibition of the GABA EC50 response” value is listed as “completely abolishes”.

Values taken from publication PMC4312132, “Phenylalanine in the Pore of the Erwinia Ligand-Gated Ion Channel Modulates Picrotoxinin Potency but Not Receptor Function” (Biochemistry, 2014).
